# Assay results taken from article PMC12783763 (Nature Communications, 2025).
# pKd: −log10 of the molar value.
# Target: NPM1 (nucleophosmin 1) (Homo sapiens, UniProt P06748)
# Assay: surface plasmon resonance
# Format: binding
# Sequence of NPM1 (nucleophosmin 1) (P06748 whole entry): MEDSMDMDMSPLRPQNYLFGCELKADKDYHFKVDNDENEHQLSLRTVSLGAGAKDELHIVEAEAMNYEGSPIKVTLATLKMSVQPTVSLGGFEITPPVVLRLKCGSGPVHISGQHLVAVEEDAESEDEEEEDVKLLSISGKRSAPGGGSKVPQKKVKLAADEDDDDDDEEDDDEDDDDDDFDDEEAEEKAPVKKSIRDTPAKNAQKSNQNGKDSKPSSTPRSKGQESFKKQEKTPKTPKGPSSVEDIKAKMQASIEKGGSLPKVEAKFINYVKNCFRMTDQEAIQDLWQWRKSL
compound,measurement,value
C[C@H](CCC(=O)NCCS(=O)(=O)O)[C@H]1CC[C@H]2[C@@H]3[C@H](O)C[C@@H]4C[C@H](O)CC[C@]4(C)[C@H]3CC[C@]12C [taurochenodeoxycholic acid],pKd,4.68
